pIC50: −log10 of the molar value.
Molecular target: EGFR (UniProt P00533)
Sequence (P00533 whole entry, looked up): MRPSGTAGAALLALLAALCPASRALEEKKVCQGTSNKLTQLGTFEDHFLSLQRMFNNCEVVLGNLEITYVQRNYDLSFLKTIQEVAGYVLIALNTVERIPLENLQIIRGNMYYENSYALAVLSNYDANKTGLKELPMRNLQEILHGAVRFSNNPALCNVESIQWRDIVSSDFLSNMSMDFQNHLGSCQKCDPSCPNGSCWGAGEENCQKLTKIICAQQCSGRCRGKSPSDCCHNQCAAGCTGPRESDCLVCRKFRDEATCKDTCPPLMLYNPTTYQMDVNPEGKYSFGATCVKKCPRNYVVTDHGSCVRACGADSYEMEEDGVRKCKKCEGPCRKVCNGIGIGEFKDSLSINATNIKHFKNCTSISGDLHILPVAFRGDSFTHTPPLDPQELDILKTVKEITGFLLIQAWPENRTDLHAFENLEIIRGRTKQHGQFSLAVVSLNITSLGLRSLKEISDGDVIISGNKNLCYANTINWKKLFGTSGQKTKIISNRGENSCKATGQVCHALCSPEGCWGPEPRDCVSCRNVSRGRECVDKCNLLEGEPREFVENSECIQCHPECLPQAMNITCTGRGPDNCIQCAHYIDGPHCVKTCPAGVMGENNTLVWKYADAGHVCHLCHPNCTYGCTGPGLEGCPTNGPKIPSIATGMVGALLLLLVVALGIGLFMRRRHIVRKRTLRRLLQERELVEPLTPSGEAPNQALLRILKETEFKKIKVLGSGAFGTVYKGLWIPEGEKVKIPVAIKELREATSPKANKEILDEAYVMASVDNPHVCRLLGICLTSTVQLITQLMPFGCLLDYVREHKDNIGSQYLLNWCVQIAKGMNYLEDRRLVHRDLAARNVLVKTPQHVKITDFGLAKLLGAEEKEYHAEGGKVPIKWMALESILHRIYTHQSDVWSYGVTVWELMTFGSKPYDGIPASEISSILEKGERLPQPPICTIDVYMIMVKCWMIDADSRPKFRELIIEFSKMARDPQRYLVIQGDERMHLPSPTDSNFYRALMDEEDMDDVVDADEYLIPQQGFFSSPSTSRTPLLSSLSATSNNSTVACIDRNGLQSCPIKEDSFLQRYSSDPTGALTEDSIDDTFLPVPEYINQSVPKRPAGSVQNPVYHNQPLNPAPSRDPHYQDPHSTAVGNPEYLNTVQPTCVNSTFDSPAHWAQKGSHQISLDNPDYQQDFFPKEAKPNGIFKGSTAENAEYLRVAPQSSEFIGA

Row | Compound | pIC50
1 | COc1cc2c(Nc3cccc(Cl)c3F)ncnc2cc1O[C@H]1CO[C@@H]2[C@H]1OC[C@@H]2F | > 7.30
2 | COc1cc2c(Nc3ccc(Br)c(Cl)c3F)ncnc2cc1OCC1CN(C)CCO1 (configuration not stated) | > 7.30
3 | COc1cc2c(Nc3ccc(Cl)c(Cl)c3)ncnc2cc1OCC1CN(C(C)C)CCCO1 (configuration not stated) | > 7.30
4 | COc1cc2c(Nc3ccc(Cl)c(Cl)c3)ncnc2cc1OCC1CN(C(=O)c2c(C)noc2C)CCO1 (configuration not stated) | > 7.30
5 | COc1cc2c(Nc3ccc(Cl)c(Cl)c3)ncnc2cc1OC1C[C@@H]2CN(C)C[C@@H]2C1 (some centres not stated) | > 7.30
6 | COc1cc2c(Nc3cc(F)ccc3F)ncnc2cc1O[C@@H]1CO[C@@H]2[C@H]1OC[C@H]2F | > 7.30
7 | COc1cc2c(Nc3ccc(Cl)c(Cl)c3)ncnc2cc1OCc1nc(N2CCNCC2)no1 | > 7.30
8 | COc1cc2c(Nc3ccc(Cl)c(Cl)c3Cl)ncnc2cc1OCC1CN(C)CCO1 (configuration not stated) | > 7.30
9 | COc1cc2c(Nc3cc(Cl)c(Br)cc3F)ncnc2cc1OC[C@H]1C[C@@H]2CN(C)C[C@@H]2C1 | > 7.30
10 | COc1cc2c(Nc3ccc(Br)c(Cl)c3)ncnc2cc1O[C@H]1CO[C@@H]2CCO[C@H]12 | > 7.30
11 | COc1cc2c(Nc3ccc(Br)c(Cl)c3)ncnc2cc1O[C@@H]1CCOC1 | > 7.30
12 | CCN1CCN(c2noc(COc3cc4ncnc(Nc5ccc(Cl)c(Cl)c5)c4cc3OC)n2)CC1 | > 7.30
13 | COc1cc2c(Nc3ccc(Cl)c(Cl)c3)ncnc2cc1OC[C@H]1C[C@@H]2CN(C)C[C@@H]2C1 | > 7.30
14 | CC(C)Oc1cc2c(Nc3ccc(Cl)c(Cl)c3)ncnc2cc1OCC1CN(C)CCO1 (configuration not stated) | > 7.30
15 | CCC(=O)CN1CCOC(COc2cc3ncnc(Nc4ccc(Cl)c(Cl)c4)c3cc2OC)C1 (configuration not stated) | > 7.30
16 | COc1cc2c(Nc3ccc(Cl)c(Cl)c3F)ncnc2cc1OCC1CN(C)C(C)(C)CO1 (configuration not stated) | > 7.30
17 | COc1cc2c(Nc3ccc(Cl)c(Cl)c3)ncnc2cc1OCC1CN(C)CC(C)(C)O1 (configuration not stated) | > 7.30
18 | COc1cc2c(Nc3ccc(Cl)c(Cl)c3Cl)ncnc2cc1O[C@H]1CO[C@H]2[C@@H]1OC[C@@H]2OC | > 7.30
19 | CCCCS(=O)(=O)N1CCOC(COc2cc3ncnc(Nc4ccc(Cl)c(Cl)c4)c3cc2OC)C1 (configuration not stated) | > 7.30
20 | COc1cc2c(Nc3ccc(Cl)c(Cl)c3F)ncnc2cc1OC[C@@H]1CN(C)CC(=O)N1 | > 7.30
21 | COc1cc2c(Nc3ccc(Cl)c(Cl)c3)ncnc2cc1OCc1noc(C2CCCN2C)n1 (configuration not stated) | > 7.30
22 | COc1cc(OC)c(Nc2ncnc3cc(O[C@@H]4CO[C@@H]5[C@H]4OC[C@H]5F)c(OC)cc23)cc1Cl | > 7.30
23 | COc1cc2c(Nc3ccc(Cl)c(Cl)c3)ncnc2cc1OCc1cc(F)cc2c1OCOC2 | > 7.30

Row | Compound | pIC50
24 | COc1cc2c(Nc3ccc(Cl)c(Cl)c3)ncnc2cc1OCc1nc(-c2ccccn2)cs1 | > 7.30
25 | COc1cc2c(Nc3ccc(Br)c(Cl)c3)ncnc2cc1OCC1CN(C)CCO1 (configuration not stated) | > 7.30
26 | COc1cc2c(Nc3ccc(Br)c(Cl)c3)ncnc2cc1O[C@H]1CO[C@@H]2[C@H]1OC[C@@H]2N1CCOCC1 | > 7.30
27 | CCOc1cc2c(Nc3ccc(Cl)c(Cl)c3)ncnc2cc1OCC1CN(C)CCO1 (configuration not stated) | > 7.30
28 | COc1cc2c(Nc3ccc(Cl)c(Cl)c3)ncnc2cc1OCCN1CCCCC1 | > 7.30
29 | COc1cc2c(Nc3ccc(F)c(Cl)c3F)ncnc2cc1OCC1CN(C)CCO1 (configuration not stated) | > 7.30
30 | COc1cc2c(Nc3ccc(Cl)c(Cl)c3)ncnc2cc1OCCC1CN(C(=O)OC(C)(C)C)C(C)(C)CO1 (configuration not stated) | > 7.30
31 | COc1cc2c(Nc3ccc(Cl)c(Cl)c3)ncnc2cc1OCC1CN(CCOCCO)CCO1 (configuration not stated) | > 7.30
32 | COc1cc2c(Nc3ccc(Cl)c(Cl)c3Cl)ncnc2cc1O[C@@H]1CO[C@@H]2[C@H]1OC[C@H]2F | > 7.30
33 | CCNC(=NC#N)N1CCOC(COc2cc3ncnc(Nc4ccc(Cl)c(Cl)c4)c3cc2OC)C1 (configuration not stated) | > 7.30
34 | COc1cc2c(Nc3c(F)cc(F)cc3Br)ncnc2cc1O[C@@H]1CO[C@@H]2[C@H]1OC[C@H]2F | > 7.30
35 | COc1cc2c(Nc3ccc(F)c(Cl)c3F)ncnc2cc1OC[C@H]1C[C@@H]2CN(C)C[C@@H]2C1 | > 7.30
36 | COc1cc2c(Nc3ccc(Cl)c(Cl)c3)ncnc2cc1OCc1noc(-c2c(C)noc2C)n1 | > 7.30
37 | COc1cc2c(Nc3ccc(Cl)cc3Cl)ncnc2cc1OCC1CN(C)CCO1 (configuration not stated) | > 7.30
38 | COc1cc2c(Nc3ccc(Br)c(Cl)c3Cl)ncnc2cc1OC[C@@H]1CN2CCC[C@H]2CO1 | > 7.30
39 | COc1cc2c(Nc3cc(Cl)ccc3Cl)ncnc2cc1O[C@@H]1CO[C@@H]2[C@H]1OC[C@H]2F | > 7.30
40 | COc1cc2c(Nc3c(F)cc(F)cc3F)ncnc2cc1O[C@@H]1CO[C@@H]2[C@H]1OC[C@H]2F | > 7.30
41 | COc1cc2c(Nc3ccc(Br)c(Cl)c3F)ncnc2cc1O[C@H]1CO[C@H]2[C@@H]1OC[C@@H]2OC | > 7.30
42 | COc1cc2c(Nc3cccc(Cl)c3F)ncnc2cc1OCC1CN(C)CCO1 (configuration not stated) | > 7.30
43 | COc1cc2c(Nc3ccc(Cl)cc3F)ncnc2cc1O[C@@H]1CO[C@@H]2[C@H]1OC[C@H]2F | > 7.30
44 | COc1cc2c(Nc3ccc(Cl)c(Cl)c3)ncnc2cc1OCC1CN(C2CCC2)CCO1 (configuration not stated) | > 7.30
45 | COc1cc2c(Nc3ccc(Cl)c(Br)c3)ncnc2cc1OCC1CN(C)CCO1 (configuration not stated) | > 7.30
46 | COc1cc2c(Nc3ccc(Cl)c(Cl)c3)ncnc2cc1OCC1COCCN1C (configuration not stated) | > 7.30

Row | Compound | pIC50
47 | COc1cc2c(Nc3cc(Cl)c(Cl)cc3F)ncnc2cc1O[C@@H]1CO[C@@H]2[C@H]1OC[C@H]2F | > 7.30
48 | COc1cc2c(Nc3ccc(Cl)c(Cl)c3)ncnc2cc1OCC1CN(S(C)(=O)=O)CCO1 (configuration not stated) | > 7.30
49 | COc1cc2c(Nc3ccc(Br)c(Cl)c3F)ncnc2cc1OC[C@H]1C[C@@H]2CN(C)C[C@@H]2C1 | > 7.30
50 | C#CCN1CCOC(COc2cc3ncnc(Nc4ccc(Cl)c(Cl)c4)c3cc2OC)C1 (configuration not stated) | > 7.30
51 | COc1cc2c(Nc3ccc(Cl)c(Cl)c3)ncnc2cc1OCC1CN(C(=O)CCc2ccccc2)CCO1 (configuration not stated) | > 7.30
52 | COc1cc2c(Nc3ccc(Br)cc3Cl)ncnc2cc1O[C@@H]1CO[C@@H]2[C@H]1OC[C@H]2F | > 7.30
53 | COc1cc2c(Nc3ccc(Cl)cc3)ncnc2cc1O[C@@H]1CO[C@@H]2[C@H]1OC[C@H]2F | > 7.30
54 | COc1cc2c(Nc3ccc(Br)c(Cl)c3Cl)ncnc2cc1O[C@@H]1CO[C@@H]2[C@H]1OC[C@H]2F | > 7.30
55 | CCN1CCOC(COc2cc3ncnc(Nc4ccc(Cl)c(Cl)c4)c3cc2OC)C1 (configuration not stated) | > 7.30
56 | COc1cc2c(Nc3ccc(Cl)c(Cl)c3)ncnc2cc1OCC1CN(C(=NC#N)N2CCCCC2)CCO1 (configuration not stated) | > 7.30
57 | COc1cc2c(Nc3ccc(Cl)c(Cl)c3F)ncnc2cc1OCC1CN(C)CCO1 (configuration not stated) | > 7.30
58 | COc1cc2c(Nc3ccc(F)c(Cl)c3)ncnc2cc1OCC1CN(C)CCO1 (configuration not stated) | > 7.30
59 | COc1cc2c(Nc3ccc(C(F)(F)F)cc3Br)ncnc2cc1O[C@@H]1CO[C@@H]2[C@H]1OC[C@H]2F | > 7.30
60 | COc1cc2c(Nc3ccc(F)c(Cl)c3F)ncnc2cc1O[C@H]1CO[C@H]2[C@@H]1OC[C@@H]2OC | > 7.30
61 | COc1cc2c(Nc3ccc(Cl)c(Cl)c3)ncnc2cc1OCc1cc(Br)cc(Br)c1 | 6.00 to 7.30
62 | COc1cc2c(Nc3ccc(Cl)c(Cl)c3)ncnc2cc1OCc1nc(-c2cccnc2)cs1 | > 7.30
63 | COc1cc2c(Nc3ccc(Cl)c(Cl)c3)ncnc2cc1OCCC1OCCO1 | > 7.30
64 | COc1cc2c(Nc3ccc(Cl)c(Cl)c3)ncnc2cc1OCc1csc(-c2ccc(Cl)cc2)n1 | 6.00 to 7.30
65 | COc1cc2c(Nc3ccc(Cl)c(Cl)c3)ncnc2cc1OCC1CN(S(=O)(=O)c2ccccc2)CCO1 (configuration not stated) | > 7.30
66 | CCN1CCCCC1c1nc(COc2cc3ncnc(Nc4ccc(Cl)c(Cl)c4)c3cc2OC)cs1 (configuration not stated) | > 7.30
67 | COc1cc2c(Nc3ccc(Cl)c(Cl)c3)ncnc2cc1OCC1CN(CCCCCCO)CCO1 (configuration not stated) | > 7.30
68 | COc1cc2c(Nc3ccc(Cl)c(Cl)c3F)ncnc2cc1OC[C@@H]1CN2CCCC[C@H]2C(=O)N1 | > 7.30
69 | COc1cc2c(Nc3ccc(Cl)c(Cl)c3)ncnc2cc1OCC1CN(CCCC#N)CCO1 (configuration not stated) | > 7.30

Row | Compound | pIC50
70 | COc1cc2c(Nc3ccc(Cl)c(Cl)c3)ncnc2cc1OCC1CN(C2CCN(C)CC2)CCO1 (configuration not stated) | > 7.30
71 | C=CCCCCN1CCOC(COc2cc3ncnc(Nc4ccc(Cl)c(Cl)c4)c3cc2OC)C1 (configuration not stated) | > 7.30
72 | COc1cc2c(Nc3ccc(C)c(Cl)c3Cl)ncnc2cc1OCC1CN(C)CCO1 (configuration not stated) | > 7.30
73 | COc1cc2c(Nc3ccc(Cl)c(Cl)c3)ncnc2cc1OCCN1CCCC1 | > 7.30
74 | COc1cc2c(Nc3ccc(Cl)c(Cl)c3)ncnc2cc1OCc1nc(-c2ccc(N3CCCC3)cc2)cs1 | > 7.30
75 | COc1cc2c(Nc3ccc(Br)c(Cl)c3F)ncnc2cc1O[C@@H]1CO[C@@H]2[C@H]1OC[C@H]2F | > 7.30
76 | COc1cc2c(Nc3ccc(Cl)c(Cl)c3)ncnc2cc1OCC1CC2CCC(C1)N2C (configuration not stated) | > 7.30
77 | COc1cc2c(Nc3ccc(F)c(F)c3)ncnc2cc1O[C@@H]1CO[C@@H]2[C@H]1OC[C@H]2F | > 7.30
78 | COc1cc2c(Nc3ccc(Br)cc3)ncnc2cc1O[C@@H]1CO[C@@H]2[C@H]1OC[C@H]2F | > 7.30
79 | COc1cc2c(Nc3cccc(Br)c3C)ncnc2cc1OCC1CN(C)CCO1 (configuration not stated) | > 7.30
80 | COc1cc2c(Nc3ccc(Br)c(Cl)c3Cl)ncnc2cc1OC[C@@H]1CO[C@H]2[C@@H]1OC[C@@H]2O | > 7.30
81 | COc1cc2c(Nc3ccc(C)c(Br)c3)ncnc2cc1OCC1CN(C)CCO1 (configuration not stated) | > 7.30
82 | COc1cc2c(Nc3ccc(Cl)c(Cl)c3)ncnc2cc1OCC1CN(CCO)CCO1 (configuration not stated) | > 7.30
83 | CCC#CCN1CCOC(COc2cc3ncnc(Nc4ccc(Cl)c(Cl)c4)c3cc2OC)C1 (configuration not stated) | > 7.30
84 | COc1cc2c(Nc3ccc(Cl)c(Cl)c3)ncnc2cc1OCc1csc([C@@H]2CCCN2C)n1 | > 7.30
85 | COc1cc2c(Nc3ccc(Cl)c(Cl)c3)ncnc2cc1OCC1CN(CCCc2ccccc2)CCO1 (configuration not stated) | > 7.30
86 | COc1cc2c(Nc3ccc(Br)c(Cl)c3Cl)ncnc2cc1OC[C@H]1C[C@@H]2CN(C)C[C@@H]2C1 | > 7.30
87 | COc1cc2c(Nc3ccc(Br)c(Cl)c3F)ncnc2cc1OC[C@H]1CN2CCOC[C@H]2CO1 | > 7.30
88 | COc1cc2c(Nc3ccc(Cl)c(Cl)c3)ncnc2cc1OCC1CN(c2ccncc2)CCO1 (configuration not stated) | > 7.30
89 | COc1cc2c(Nc3ccc(Cl)c(Cl)c3)ncnc2cc1OCC(=O)N1CCOCC1 | > 7.30
90 | COc1cc2c(Nc3ccc(Cl)c(Cl)c3)ncnc2cc1OCc1nc(-c2ccc(C(C)(C)C)cc2)no1 | 6.00 to 7.30
91 | COc1cc2c(Nc3cc(Cl)c(Br)cc3F)ncnc2cc1OCC1CN(C)C(C)(C)CO1 (configuration not stated) | > 7.30
92 | COc1cc2c(Nc3cc(Cl)c(Br)cc3F)ncnc2cc1OCC1CO[C@@H]2[C@@H](OC)CO[C@H]12 (some centres not stated) | > 7.30

— the Kinase Knowledgebase extract (Sharma et al. 2016)
